“Also recorded” adds a separate entry of the source.
How the values were obtained:
[1] = biological target: T1, equine deoxy-Mb (Equus caballus, UniProt P68082); test: ITC binding of lactate to deoxy-Mb; settings: for Kd: n = 5; for c value: c = nKa[M]t; for ΔS°: from ΔG = ΔH − TΔS
T1 construct: Horse heart muscle myoglobin (Mb), chicken egg white lysozyme, sodium lactate (LAC), and sodium dithionite were purchased from Sigma Aldrich; purchased Sigma Aldrich, St. Louis, MO, USA; host or cells: horse heart muscle
T1 sequence (P68082 whole entry): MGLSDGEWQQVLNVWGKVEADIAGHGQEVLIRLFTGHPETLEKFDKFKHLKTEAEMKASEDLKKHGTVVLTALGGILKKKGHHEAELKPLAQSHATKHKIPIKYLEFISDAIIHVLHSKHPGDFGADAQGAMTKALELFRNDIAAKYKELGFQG
Protocol: (§1) Preparations enriched in oxygenated and deoxygenated forms of Mb were prepared as described by our earlier publication related to Mb interaction with fatty acids and acylcarnitines. Briefly, 500 µM of Mb was dissolved in 50 mM sodium phosphate buffer of desired test pH. To promote conversion of ferric (Fe^3+) to ferrous (Fe^2+) iron, 3 mM of sodium dithionite was added to the protein solution with gentle mixing. Thereafter, the solution was subjected to a desalting column to remove the reducing agent and to remove the interference, particularly in O2 release kinetics and UV-Vis spectroscopy absorbance peaks. […] Thereafter, purging the protein solution enriched in oxy- and deoxy-Mb with either O2 or N2 gas, respectively, was performed continuously for 10 min. Formation of oxy- and deoxy-Mb were confirmed based on their characteristic peaks using UV-visible spectroscopy. All the experiments were performed in three different pH conditions (7.0, 6.4, and 6.0), mimicking intracellular physiological and acidic pH states that would be typically observed in skeletal muscle cells in “rested” and “active” (hyperlactatemia) conditions.
(§2) Protein-ligand binding experiments were performed using isothermal titration calorimetry (ITC) (Microcal PEAQ-ITC, Malvern, Chester County, PA, USA). Before starting the experiment, both the ligand solution and the protein solution were purged with either O2 or N2 for 10 min. Both the protein and LAC solutions were thermally equilibrated to 25 °C prior to the start of the titration. LAC was loaded in the […] at an initial concentration of 50 µM and titrated against 500 µM of either oxy- or deoxy-Mb solution, maintaining a 1:10 ratio between ligand and protein. To obtain the working c-value between 10 ≤ c ≤ 500 [51], different protein to ligand molar ratios (1:2, 1:5, 1:10, and 1:20) were tested, and based on the c-value, the molar ratio of 1:10 was selected for all ITC binding studies. A total of 19 injections (2 µL each) from the syringe were used to generate the ITC curves within each experiment. During the experimental run, the samples were mixed thoroughly at a constant stirring rate of 750 rpm. Between each injection, a 150 s gap was maintained to achieve a stable baseline. Data obtained from the ITC experiments were best fit to a one set of binding sites model provided by Microcal PEAQ-ITC software (version 1.40). Heats of dilution and heats caused by potential products formed during the course of the ITC experiments were corrected by performing appropriate blank titrations, consisting of (a) either oxy- or deoxy-Mb in the test buffer solution, (b) test buffer in the LAC, and (c) buffer-buffer solution. Lysozyme was used as a negative control protein in the protein-ligand binding experiments. All the binding experiments were performed 5 times (n = 5) and data obtained from statistical analysis are presented here.
(§3) The change in entropy (ΔS) was calculated using the equation: ΔG = ΔH − TΔS(1) where ΔG represents the change in Gibbs free energy, ΔH is the change in enthalpy, and T is the absolute temperature.
(§4) c values were calculated using the equation:c = nKa[M]t(2) where n is the number of binding sites per receptor (macromolecule), [M]t is macromolecule concentration, and Ka is the association constant.

[2] = biological target: T2, equine oxy-Mb (Equus caballus, UniProt P68082); test: O2 release kinetics from oxy-Mb (Oxytherm+ respirometer); type: biochemical
T2 construct: Horse heart muscle myoglobin (Mb), chicken egg white lysozyme, sodium lactate (LAC), and sodium dithionite were purchased from Sigma Aldrich; purchased Sigma Aldrich, St. Louis, MO, USA; host or cells: horse heart muscle
T2 sequence (P68082 whole entry): as above
Protocol: Figure 4 Effect of lactate binding to oxy-Mb and O2 release kinetics. Oxygen kinetics is studied using Oxytherm+ respirometer. All experiments were performed with 50 mM sodium phosphate buffer (pH 7.0, pH 6.4, and pH 6.0) containing 150 µM equine oxy-Mb and varying concentrations of lactate (0.625 mM to 2.5 mM) and oxy-Mb alone as a control. (a) A representative graph showing addition of lactate eliciting a rapid release of O2 from oxy-Mb at pH 6.4. Arrows in the figure indicate the point of addition of oxy-Mb and LAC into buffer during the run. (b) Rate of release of O2 from Mb against lactate concentrations with buffers (pH 7.0, pH 6.4, and pH 6.0). […] All O2 kinetic experiments were repeated 3 times (n = 3). Statistical analysis was performed using one-way ANOVA and the Tukey–Kramer post hoc test. […] Among all the test groups, only statistically […] groups are shown with horizontal lines and two asterisks.
The O2 concentrations (release and binding) during the ligand interactions with Mb in the solution were measured using Oxytherm+ liquid-phase oxygen electrode system (Hansatech Instruments, Norfolk, UK). The Oxytherm+ respirometer is an advanced instrument routinely used for respiration studies.
The measurement of dissolved O2 is calculated at the given temperature and atmospheric pressure according to the following equation [64]: Cs = 14.16 − (0.394 × T) + (0.007714 × T^2) − (0.0000646 × […])(3) where Cs is the saturated O2 concentration in ppm and T is the temperature in °C.
1 ppm is equivalent to 1 µg/mL or (1 µg/32 g/mol) = 0.03125 µmol/mL or 31.25 nmol/mL.
Similarly, deoxy-Mb protein alone (i.e., without LAC) was also tested. All the experiments were carried out at a constant temperature of 25 °C using a Peltier thermostat. The solutions were mixed at 50 rpm using a small magnetic stirring bar placed inside the sample container. Samples were injected into the buffer solution (50 mM sodium phosphate) at varying pH levels (pH 6.0–7.0) using a Hamilton glass syringe (1cc) after achieving equilibrium. Ligand was added to the Mb protein. Appropriate buffer controls voiding either Mb or LAC were used to nullify any artefacts. O2 kinetic experiments were also performed. All the kinetic experiments were performed 3 times (n = 3) and data obtained from statistical analysis are presented here.

[3] = biological target: T3, deoxy-Mb (Equus caballus, UniProt P68082); test: Time-resolved UV-Vis spectroscopy of LAC-incubated deoxy-Mb; set-up: species or system horse; settings: data not shown
T3 construct: Horse heart muscle myoglobin (Mb), chicken egg white lysozyme, sodium lactate (LAC), and sodium dithionite were purchased from Sigma Aldrich; purchased Sigma Aldrich, St. Louis, MO, USA; host or cells: horse heart muscle
T3 sequence (P68082 whole entry): as above
Protocol: (§5) The change in the spectral characteristics of Mb alone and LAC-bound Mb were recorded using UV-Vis spectroscopy (Polarstar Omega, BMG Labtech, ortenberg, Germany). All the sample preparations and the concentrations used were similar to the ITC experiments. After degassing Mb and LAC samples either with O2 or N2 gas in sealed vials, appropriate volumes of the samples were collected using a Hamilton glass syringe (1cc), mixed in a glass cuvette, and sealed immediately; time-resolved spectra were recorded immediately at 25 °C for a period of 75 min. All spectral data were collected at 5 min time intervals. All the spectral experiments were performed 3 times (n = 3).

[4] = biological target: T2, equine oxy-Mb; test: ITC binding of lactate to oxy-Mb; settings: for Kd: n = 5; for c value: c = nKa[M]t; for ΔS°: from ΔG = ΔH − TΔS
Protocol: as §1, §2, §3, §4

[5] = biological target: oxy-Mb; set-up: method as in PMID 8663546; settings: pH 6.5, spectrophotometric, tonometry; cited from earlier work
[6] = biological target: T4, oxy-Mb (Equus caballus, UniProt P68082); test: Time-resolved UV-Vis spectroscopy of LAC-incubated oxy-Mb; set-up: species or system horse; settings: all the test pH conditions
T4 construct: Horse heart muscle myoglobin (Mb), chicken egg white lysozyme, sodium lactate (LAC), and sodium dithionite were purchased from Sigma Aldrich; purchased Sigma Aldrich, St. Louis, MO, USA; host or cells: horse heart muscle
T4 sequence (P68082 whole entry): as above
Protocol: as §5

[7] = biological target: T5, chicken egg white lysozyme (Gallus gallus, UniProt P00698); test: ITC binding of LAC to negative control protein lysozyme; settings: all tested pH conditions (pH 7.0, 6.4, 6.0)
T5 construct: Horse heart muscle myoglobin (Mb), chicken egg white lysozyme, sodium lactate (LAC), and sodium dithionite were purchased from Sigma Aldrich; purchased Sigma Aldrich, St. Louis, MO, USA; host or cells: chicken egg white
T5 sequence (P00698 19-147): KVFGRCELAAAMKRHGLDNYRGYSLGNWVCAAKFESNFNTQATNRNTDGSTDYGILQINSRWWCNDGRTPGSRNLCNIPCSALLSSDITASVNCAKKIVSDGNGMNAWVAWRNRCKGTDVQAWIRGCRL
Protocol: Horse heart muscle myoglobin (Mb), chicken egg white lysozyme, sodium lactate (LAC), and sodium dithionite were purchased from Sigma Aldrich, St. Louis, MO, USA. All other chemicals used in the experiments are of analytical grade and were also procured from Sigma Aldrich, St. Louis, MO, USA.
Protein-ligand binding experiments were performed using isothermal titration calorimetry (ITC) (Microcal PEAQ-ITC, Malvern, Chester County, PA, USA). Before starting the experiment, both the ligand solution and the protein solution were purged with either O2 or N2 for 10 min. Both the protein and LAC solutions were thermally equilibrated to 25 °C prior to the start of the titration. LAC was loaded in the […] at an initial concentration of 50 µM and titrated against 500 µM of either oxy- or deoxy-Mb solution, maintaining a 1:10 ratio between ligand and protein. To obtain the working c-value between 10 ≤ c ≤ 500 [51], different protein to ligand molar ratios (1:2, 1:5, 1:10, and 1:20) were tested, and based on the c-value, the molar ratio of 1:10 was selected for all ITC binding studies. A total of 19 injections (2 µL each) from the syringe were used to generate the ITC curves within each experiment. During the experimental run, the samples were mixed thoroughly at a constant stirring rate of 750 rpm. Between each injection, a 150 s gap was maintained to achieve a stable baseline. […]

[8] = biological target: deoxy-Mb; set-up: method as in PMID 8663546; settings: pH 6.5, spectrophotometric, tonometry; cited from earlier work
[9] = pH 6.4, 25 °C, listed as lactate

With `CC(O)C(=O)[O-].[Na+]` (stereo not drawn) [LAC, sodium lactate] the “No. of binding sites” value ([1]; pH 6.0) was 0.8 ± 0.02 ^a2, the “ΔH°” value ([1]; pH 6.0) was 12.6 ± 0.4 ^d3 kcal mol^−1 and the Kd ([1]; pH 6.0, 25 °C) was 6.4 ± 0.2 µM. For the same molecule, the c value ([1]; pH 6.0) was 61.2 ± 0.9 ^b1, the “ΔS°” value ([1]; pH 6.0) was 0.1 ± 0.0 ^d3 cal mol^−1 K^−1 and the “No. of binding sites” value ([1]; pH 6.4) was 0.8 ± 0.03 ^a1. For the same molecule, the “ΔH°” value ([1]; pH 6.4) was 149.5 ± 13.0 ^b1 kcal mol^−1, the Kd ([1]; pH 6.4, 25 °C) was roughly 14 µM and the Kd [1, 9] was 13.7 ± 1.6 µM. The c value ([1]; pH 6.4) was 30.4 ± 4.6 ^c1, the “ΔS°” value ([1]; pH 6.4) was 0.55 ± 0.03 ^b1 cal mol^−1 K^−1 and the “Ka at pH 6.4 relative to pH 6.0” value ([1]; pH 6.4 vs pH 6.0) was ~ 2 fold. For the same molecule, the “binding of LAC (ITC)” value ([1]; pH 7.0) was “No detectable binding”, the “No. of binding sites” value ([1]; pH 7.0, NDB: no detectable binding) was “NDB” and the “O2 release compared to oxy-Mb alone” value ([2]; 0.625 mM LAC, pH 6.0) was “no significance difference”. The “maximum rate of O2 release” value ([2]; 2.5 mM LAC, pH 6.4 buffer, 25 °C) was 72 nmol/min/g protein, the “O2 release rate constant” value ([2]; pH 6.0) was 0.04 mM LAC/nM O2 release and the “O2 release rate constant” value ([2]; pH 6.4) was 0.029 mM LAC/nM O2 release. The “O2 release rate constant” value ([2]; pH 7.0) was 0.537 mM LAC/nM O2 release, the “change in UV-Vis spectral data” value [3] was “marginal changes in the heme peak absorbance (435 nm)” and the “No. of binding sites” value ([4]; pH 6.0) was 1.0 ± 0.06 ^a2. The “ΔH°” value ([4]; pH 6.0) was 34 ± 3.5 ^c2 kcal mol^−1, the Kd ([4]; pH 6.0, 25 °C) was 1.9 ± 0.2 µM and the ΔG ([4]; pH 6.0, printed as Mb+LAC complex) was -7.8 kcal/mol. The c value ([4]; pH 6.0) was 267.9 ± 30.4 ^d2, the “ΔS°” value ([4]; pH 6.0) was 0.14 ± 0.01 ^c2 cal mol^−1 K^−1 and the “No. of binding sites” value ([4]; pH 6.4) was 0.8 ± 0.03 ^a1. The “ΔH°” value ([4]; pH 6.4) was 151.5 ± 18.5 ^b1 kcal mol^−1, the Kd ([4]; pH 6.4, 25 °C) was roughly 7 µM and the Kd [4, 9] was 6.9 ± 1.1 µM. The ΔG ([4]; pH 6.4, oxy-Mb+LAC complex) was -6.9 kcal/mol, the c value ([4]; pH 6.4) was 67.5 ± 15.5 ^b1 and the “ΔS°” value ([4]; pH 6.4) was 0.5 ± 0.06 ^b1 cal mol^−1 K^−1. The Ka ([4]; pH 7.0) was 0.05 µM⁻¹, the “No. of binding sites” value ([4]; pH 7.0) was 0.9 ± 0.7 ^b* and the ΔG ([4]; pH 7.0) was -6.2 kcal/mol. The “ΔH°” value ([4]; pH 7.0) was −53.1 ± 0.3 ^a* kcal mol^−1, the Kd ([4]; pH 7.0, 25 °C) was 20.7 ± 2.7 µM and the c value ([4]; pH 7.0) was 22.4 ± 1.4 ^a. For the same molecule, the “ΔS°” value ([4]; pH 7.0) was −0.15 ± 0.01 ^a* cal mol^−1 K^−1, the “increase of Ka with drop in pH” value ([4]; pH 7.0 to pH 6.0) was ~ 3 fold and the Kd [5] was 26000 µM. The “change in UV-Vis spectral data” value [6] was “no change in spectral data”, the “binding of LAC (ITC)” value [7] was “no detectable binding; also recorded: did not bound” and the Kd [8] was 2500 µM.
